From patent US9765039B2, “Biaryl derivatives as bromodomain inhibitors” (Zenith Epigenetics Ltd., priority 2012, dated 2017)

Experiments:
Brd4 bromodomain 1 = target: T1, Brd4 bromodomain 1 (Homo sapiens, UniProt O60885); assay: Inhibition of tetra-acetylated histone H4 binding to BET bromodomains (TR-FRET); set-up: key: Active: Compounds with an IC50 value less than 30 μM were deemed to be active.; Not Active: Compounds with an IC50 value less than 30 μM were deemed to be active; details: first bromodomain of Brd4, tetra-acetylated histone H4 peptide
T1 construct: made in house; host or cells: E. coli BL21(DE3)
Procedure, shortened: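 TR-FRET with N-terminally His-tagged bromodomains (200 nM, E. coli-expressed, Ni affinity and SEC-purified) and biotinylated tetra-acetylated histone H4 peptide (25–50 nM), detected with Eu-cryptate streptavidin and XL665 anti-His antibody. Buffer 30 mM HEPES pH 7.4, 320 mM KF, 0.08% BSA, 0.2% DMSO; 2 h RT. IC50 from decrease in 665/620 nm ratio.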

c-myc = assay: Inhibition of c-myc expression in cancer cell lines (mRNA, real-time PCR); type: cell-based; set-up: key: Active: Compounds with an IC50 value less than 30 μM were deemed to be active; details: Human AML MV4-11 cells, 3 hours
Procedure, shortened: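 MV4-11 cells (2.5×10^4) exposed to compound or 0.1% DMSO for 3 h at 37° C, then lysed for mRNA isolation. c-myc and cyclophilin cDNAs co-amplified by duplex RT real-time PCR. IC50 from dose-response curve.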

Human AML MV-4-11 cells = assay: Inhibition of cell proliferation in cancer cell lines (CellTiter Aqueous One); type: cell-based; set-up: key: Active: Compounds with an IC50 value less than 30 μM were deemed to be active.; Not Active: Compounds with an IC50 value less than 30 μM were deemed to be active; details: 72 hours
Procedure, shortened: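 Exponentially growing MV-4-11 cells were treated immediately with two-fold compound dilutions from 30 µM to 0.2 µM in triplicate for 72 h at 37 °C. Viability was read by MTS (CellTiter Aqueous One) absorbance at 490 nm after 3-4 h; % proliferation vs DMSO gave IC50.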

hIL-6 mRNA = assay: Inhibition of hIL-6 mRNA transcription in LPS-stimulated U937 macrophages; type: cell-based, human; set-up: key: Active: Compounds with an IC50 value less than 30 μM are deemed to be active; details: U937 differentiated into macrophages, 1 h pretreatment, lipopolysaccharide 3 h
Procedure, shortened: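 U937 cells differentiated 3 days with 60 ng/mL PMA, pretreated 1 h with compound, then stimulated with […] E. coli LPS for 3 h at 37° C. hIL-6 mRNA quantified by one-step real-time RT-PCR, Ct normalised to internal control and expressed as fold induction relative to control.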

COc1cc(OC)c2c(=O)[nH]c(-c3ccc(OCCNC(C)C)c(-c4ccc([S+](C)[O-])cc4)n3)nc2c1 (stereo not shown) [Example 41, 2-(5-(2-(Isopropylamino)ethoxy)-6-(4-(methylsulfinyl)phenyl)pyridin-2-yl)-5,7-dimethoxyquinazolin-4(3H)-one]
Active: FRET activity (IC50 < 30 μM) (Brd4 bromodomain 1) | c-myc activity (IC50 < 30 μM) (c-myc) | cell proliferation activity (IC50 < 30 μM) (Human AML MV-4-11 cells) | IL-6 activity (IC50 < 30 μM) (hIL-6 mRNA)
